Results: patent publication US7414048B2, “4,5-dihydro-isoxazole derivatives and their pharmaceutical use” (Janssen Pharmaceutica, N.V., priority 1998, dated 2008)

System: T cell blast formation in human blood
Assay: In vitro inhibition of T cell blast formation in human blood (human whole blood blast formation, PHA stimulated, flow cytometry)
Type: cell-based
Conditions: 72 hours, mean where multiple measurements
Protocol: Cells are collected after a 72 hours culture period at 37° C., supernatant is removed by centrifugation and red blood cells are lysed by a hypotonic buffer. The remaining white blood cells are collected in PBS containing propidium iodide. The blast formation is analyzed using a benchtop flow cytometer (Cytoron, Ortho) equipped with an argon-ion laser. […] When multiple measurements were performed, a mean value was calculated for the percentage inhibition of T cell blast formation.

[1] = Test Dose 1 × 10^−6 (unit not given)
[2] = Test Dose 3 × 10^−7 (unit not given)

SMILES	% Inhibition of T cell blast formation [1]	% Inhibition of T cell blast formation [2]	further results
COc1ccc(OC)c(C(=O)c2ccc(NC(=O)C3CC(c4cccnc4)=NO3)cc2)c1 (stereo not drawn) [Compound 395]	77%	–	–
O=C(Nc1ccc(-c2noc(-c3ccccc3)n2)cc1)C1CC(c2cccnc2)=NO1 (stereo not drawn) [Compound 452]	79%	–	–
Cn1cc(C(=O)c2ccc(NC(=O)C3CC(c4cccnc4)=NO3)cc2)cn1 (stereo not drawn) [Compound 386]	–	38%	–
COc1cc(C(=O)c2ccc(NC(=O)C3CC(c4cccnc4)=NO3)cc2)cc(OC)c1OC (stereo not drawn) [Compound 396]	65%	–	–
O=C(Nc1ccc(-c2n[nH]c3cc(F)ccc23)cc1)C1CC(c2cccnc2)=NO1 (stereo not drawn) [Compound 463]	–	33%	–
CN1CCC(N(C)CC(=O)NC(c2ccccc2)c2ccc(NC(=O)C3CC(c4cccnc4)=NO3)cc2)CC1 (stereo not drawn) [Compound 146]	95%	–	–
O=C(Nc1ccc(-c2nc(-c3ccccc3)cs2)cc1)C1CC(c2cccnc2)=NO1 (stereo not drawn) [Compound 454]	–	59%	–
Cc1nc2ccccc2n1-c1ccc(NC(=O)C2CC(c3cccnc3)=NO2)cc1 (stereo not drawn) [Compound 467]	82%	–	–
O=C(Nc1ccc(C(=NO)c2ccccc2)cc1)C1CC(c2cccnc2)=NO1 (single isomer, unassigned) [Compound 420]	39%	–	–
CNC(=O)c1ccc(CNC(=O)c2ccc(NC(=O)C3CC(c4cccnc4)=NO3)cc2)cc1 (stereo not drawn) [Compound 427]	80%	–	–
COc1ccc(/C=C/C(=O)c2ccc(NC(=O)C3CC(c4cccnc4)=NO3)cc2)c(C)c1C (racemic) [Compound 479]	85%	–	–
O=C(/C=C/c1ccccc1)c1ccc(NC(=O)C2CC(c3cccnc3)=NO2)cc1 (racemic) [Compound 478]	–	70%	–
NC(c1ccccc1)c1ccc(NC(=O)[C@@H]2CC(c3cccnc3)=NO2)cc1 (stereo partly drawn) [Compound 206, [5S-(B)]-N-[4-(aminophenylmethyl)phenyl]4,5-dihydro-3-(3-pyridinyl)-5-isoxazolecarboxamide]	66%	–	–
O=C(Nc1ccc(C(O)c2ccccn2)cc1)C1CC(c2cccnc2)=NO1 (single isomer, unassigned) [Compound 525]	74%	–	–
O=C(c1ccc(NC(=O)C2CC(c3cccnc3)=NO2)cc1)c1cnc2ccccc2c1 (stereo not drawn) [Compound 393]	69%	–	–
COCCOC(c1ccccc1)c1ccc(NC(=O)C2CC(c3cccnc3)=NO2)cc1 (stereo not drawn) [Compound 416]	87%	–	–
O=C(Nc1ccc(C(O)c2ccncc2)cc1)C1CC(c2cccnc2)=NO1 (stereo not drawn) [Compound 407]	–	63%	–
COc1ccccc1CNC(=O)c1ccc(NC(=O)C2CC(c3cccnc3)=NO2)cc1 (stereo not drawn) [Compound 285]	72%	–	–
CN1N=C(c2ccccc2)CC1c1ccc(NC(=O)C2CC(c3cccnc3)=NO2)cc1 (stereo not drawn) [Compound 457]	–	67%	–
Nc1cccc(F)c1CNC(=O)c1ccc(NC(=O)C2CC(c3cccnc3)=NO2)cc1 (stereo not drawn) [Compound 292]	–	40%	–
CN1N=C(c2ccc(NC(=O)C3CC(c4cccnc4)=NO3)cc2)CC1c1ccccc1 (stereo not drawn) [Compound 459]	77%	–	–
O=C(/C=C/c1ccccc1C(F)(F)F)c1ccc(NC(=O)C2CC(c3cccnc3)=NO2)cc1 (racemic) [Compound 471]	–	54%	–
N#CC(OC(N)=O)(c1ccccc1)c1ccc(NC(=O)C2CC(c3cccnc3)=NO2)cc1 (racemic) [Compound 75, (±)-[cyano[4-[[[4,5-dihydro-3-(3-pyridinyl)-5-isoxazolyl]carbonyl]amino]phenyl]phenylmethyl]carbamate]	–	67%	–
CN(CCC1OCCO1)C(c1ccccc1)c1ccc(NC(=O)C2CC(c3cccnc3)=NO2)cc1 (stereo not drawn) [Compound 122]	–	36%	–
COc1cccc(OC)c1C(=O)c1ccc(NC(=O)C2CC(c3cccnc3)=NO2)cc1 (stereo not drawn) [Compound 397]	82%	–	–
O=C(Nc1ccc(C(Nc2ccc(C(F)(F)F)cc2Br)c2ccccc2)cc1)C1CC(c2cccnc2)=NO1 (stereo not drawn) [Compound 218]	–	33%	–
CN(C)c1ccc(CNC(=O)c2ccc(NC(=O)C3CC(c4cccnc4)=NO3)cc2)cc1 (stereo not drawn) [Compound 286]	–	49%	–

SMILES	% Inhibition of T cell blast formation [1]	% Inhibition of T cell blast formation [2]	further results
O=C(/C=C/c1c(F)cccc1Cl)c1ccc(NC(=O)C2CC(c3cccnc3)=NO2)cc1 (racemic) [Compound 476]	–	67%	–
O=C(Nc1ccc(-n2cnc3ccccc32)cc1)C1CC(c2cccnc2)=NO1 (stereo not drawn) [Compound 464]	85%	–	–
COc1cccc(CNC(=O)c2ccc(NC(=O)C3CC(c4cccnc4)=NO3)cc2)c1 (stereo not drawn) [Compound 272]	67%	–	–
O=C(Nc1ccc(C(Nc2cccc(Cl)c2)c2ccccc2)cc1)C1CC(c2cccnc2)=NO1 (stereo not drawn) [Compound 216]	70%	–	–
O=C(NCCc1ccco1)c1ccc(NC(=O)C2CC(c3cccnc3)=NO2)cc1 (stereo not drawn) [Compound 268]	58%	–	–
O=C(c1ccc(NC(=O)C2CC(c3cccnc3)=NO2)cc1)c1ccccc1Cl (stereo not drawn) [Compound 14]	78%	–	–
O=C(Nc1ccc(C(NC2CC2)c2ccccc2)cc1)C1CC(c2cccnc2)=NO1 (stereo not drawn) [Compound 90]	33%	–	–
O=C(Nc1ccc(C(=O)N2CCN(c3ccccc3)CC2)cc1)C1CC(c2cccnc2)=NO1 (stereo not drawn) [Compound 379]	–	51%	–
COc1cc(C(=NO)c2ccc(NC(=O)C3CC(c4cccnc4)=NO3)cc2)cc(OC)c1OC (stereo not drawn) [Compound 436]	–	78%	–
O=C(Nc1ccc(C(Nc2cccc(F)c2)c2ccccc2)cc1)C1CC(c2cccnc2)=NO1 (stereo not drawn) [Compound 214]	62%	–	–
NC(=O)C(c1ccccc1)c1ccc(NC(=O)C2CC(c3cccnc3)=NO2)cc1 (stereo not drawn) [Compound 312]	93%	–	–
CC(O)(c1ccccc1)c1ccc(NC(=O)C2CC(c3cccnc3)=NO2)cc1 (stereo not drawn) [Compound 411, (A2)-4,5-dihydro-N-[4-(1-hydroxy-1-phenylethyl)phenyl]-3-(3-pyridinyl)-5-isoxazolecarboxamide]	77%	–	–
O=C(Nc1ccc(Oc2ccccc2)cc1)C1CC(c2cccnc2)=NO1 (stereo not drawn) [Compound 36]	–	–	% Inhibition of T cell blast formation (Test Dose 1 × 10^−5 (unit not given)): 85%
CC(C)=NOC(c1ccccc1)c1ccc(NC(=O)[C@@H]2CC(c3cccnc3)=NO2)cc1 (stereo partly drawn) [Compound 504, (5S)-4,5-dihydro-N-[4-[[[(1-methylethylidene)amino]oxo]phenylmethyl]phenyl]-3-(3-pyridinyl)-5-isoxazolecarboxamide]	–	75%	–
O=C(Nc1ccc(C(=NO)c2ccccn2)cc1)C1CC(c2cccnc2)=NO1 (stereo not drawn) [Compound 439]	79%	–	–
O=C(NCc1cnc2ccccc2c1)c1ccc(NC(=O)C2CC(c3cccnc3)=NO2)cc1 (stereo not drawn) [Compound 291]	78%	–	–
O=C(c1ccccc1)c1ccc(NC(=O)C2CC(c3cccnc3)=NO2)nc1 (stereo not drawn) [Compound 371]	62%	–	–
O=C(NCc1cccs1)c1ccc(NC(=O)C2CC(c3cccnc3)=NO2)cc1 (stereo not drawn) [Compound 289]	64%	–	–
Cc1ccccc1/C=C/C(=O)c1ccc(NC(=O)C2CC(c3cccnc3)=NO2)cc1 (racemic) [Compound 475]	–	56%	–
O=C(Nc1ccc(C(NCc2ccncc2)c2ccccc2)cc1)C1CC(c2cccnc2)=NO1 (stereo not drawn) [Compound 97]	58%	–	–
CN(C)Cc1csc(NC(=O)C(c2ccccc2)c2ccc(NC(=O)C3CC(c4cccnc4)=NO3)cc2)n1 (stereo not drawn) [Compound 314]	–	58%	–
N#CC(OC(=O)c1ccccc1)(c1ccccc1)c1ccc(NC(=O)C2CC(c3cccnc3)=NO2)cc1 (stereo not drawn) [Compound 415]	65%	–	–
Nc1nc(-c2ccccc2)c(C(c2ccccc2)c2ccc(NC(=O)C3CC(c4cccnc4)=NO3)cc2)s1 (stereo not drawn) [Compound 53]	39%	–	–
COc1ccccc1/C=C/C(=O)c1ccc(NC(=O)C2CC(c3cccnc3)=NO2)cc1 (racemic) [Compound 477]	–	63%	–
CC(O)(c1ccccc1)c1ccc(NC(=O)C2CC(c3cccnc3)=NO2)cc1 (stereo not drawn) [Compound 510, (B1)-4,5-dihydro-N-[4-(1-hydroxy-1-phenylethyl)phenyl]-3-(3-pyridinyl)-5-isoxazolecarboxamide]	76%	–	–
O=C(Nc1ccc(C(O)c2ccc(F)cc2F)cc1)C1CC(c2cccnc2)=NO1 (stereo not drawn) [Compound 408]	–	71%	–
O=C(Nc1ccc(C(O)(c2ccccc2)c2ccccn2)cc1)C1CC(c2cccnc2)=NO1 (single isomer, unassigned) [Compound 68]	61%	–	–
